Read-outs that look alike come from different tables or passages of the source.
Experiments:
P. aeruginosa AUMC-Pa-3 = assay: microbe, parasite or virus in culture; conditions: for MIC: Pseudomonas aeruginosa, AUMCPA3, 18 h, read-out: MICa: MIC of the antibiotic; for FICI / MICac: MIC of the antibiotic in the combination: strain AUMC-Pa-3; for FICI: antibiotic + D-11 (MICb/MICbc 128/4); for MICac: MIC of the antibiotic in the combination: with D-11 at MICbc 4, unit not given
Procedure, shortened: (§1)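 Two-fold serial dilutions in MHB received an equal volume of bacteria (suspension about 1 × 10^6 CFU/mL). Plates were held 18 h at 37 °C, then read visually for growth. Triplicate, CLSI-based.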

P. aeruginosa AUMC-Pa-4 = assay: microbe, parasite or virus in culture; conditions: for MIC: Pseudomonas aeruginosa, AUMCPA4, 18 h, read-out: MICa: MIC of the antibiotic; for FICI / MICac: MIC of the antibiotic in the combination: strain AUMC-Pa-4; for FICI: antibiotic + D-11 (MICb/MICbc 128/4); for MICac: MIC of the antibiotic in the combination: with D-11 at MICbc 4, unit not given
Procedure, shortened: as §1

P. aeruginosa AUMC-Pa-5 = assay: microbe, parasite or virus in culture; conditions: for MIC: Pseudomonas aeruginosa, AUMCPA5, 18 h, read-out: MICa: MIC of the antibiotic; for FICI / MICac: MIC of the antibiotic in the combination: strain AUMC-Pa-5; for FICI: antibiotic + D-11 (MICb/MICbc 64/4); for MICac: MIC of the antibiotic in the combination: with D-11 at MICbc 4, unit not given
Procedure, shortened: as §1

P. aeruginosa AUMC-Pa-6 = assay: microbe, parasite or virus in culture; conditions: for MIC: Pseudomonas aeruginosa, AUMCPA6, 18 h, read-out: MICa: MIC of the antibiotic; for FICI / MICac: MIC of the antibiotic in the combination: strain AUMC-Pa-6; for FICI: antibiotic + D-11 (MICb/MICbc 64/4); for MICac: MIC of the antibiotic in the combination: with D-11 at MICbc 4, unit not given
Procedure, shortened: as §1

P. aeruginosa PAO1 = assay: microbe, parasite or virus in culture; conditions: PAO1; for MIC: Pseudomonas aeruginosa, PAO1, 18 h, read-out: MICa: the MIC of antibiotics, S3 Table, antibiotic alone; for FICI / MICac: the MIC for the antibiotic in the combination: S3 Table
Procedure, shortened: as §1

P. aeruginosa ATCC27853 = assay: microbe, parasite or virus in culture; design: MICa: MIC of the antibiotic / MICac: MIC of the antibiotic in the combination: unit not given beside the values; conditions: for MIC: Pseudomonas aeruginosa, ATCC27853, 18 h, read-out: MICa: MIC of the antibiotic; for FICI / MICac: MIC of the antibiotic in the combination: strain ATCC27853; for FICI: antibiotic + D-11 (MICb/MICbc 32/4); for MICac: MIC of the antibiotic in the combination: with D-11 at MICbc 4, unit not given
Procedure, shortened: as §1

P. aeruginosa NR-31040 = assay: microbe, parasite or virus in culture; design: MICa: MIC of the antibiotic / MICac: MIC of the antibiotic in the combination: unit not given beside the values; conditions: for MIC: Pseudomonas aeruginosa, NR31040, 18 h, read-out: MICa: MIC of the antibiotic; for FICI / MICac: MIC of the antibiotic in the combination: strain NR-31040; for FICI: antibiotic + D-11 (MICb/MICbc 128/4); for MICac: MIC of the antibiotic in the combination: with D-11 at MICbc 4, unit not given
Procedure, shortened: as §1

P. aeruginosa NR-31041 = assay: microbe, parasite or virus in culture; design: MICa: MIC of the antibiotic / MICac: MIC of the antibiotic in the combination: unit not given beside the values; conditions: for MIC: Pseudomonas aeruginosa, NR31041, 18 h, read-out: MICa: MIC of the antibiotic; for FICI / MICac: MIC of the antibiotic in the combination: strain NR-31041; for FICI: antibiotic + D-11 (MICb/MICbc 64/4); for MICac: MIC of the antibiotic in the combination: with D-11 at MICbc 4, unit not given
Procedure, shortened: as §1

P. aeruginosa PA14 = assay: microbe, parasite or virus in culture; design: MICa: MIC of the antibiotic / MICac: MIC of the antibiotic in the combination: unit not given beside the values; conditions: for MIC: Pseudomonas aeruginosa, PA14, 18 h, read-out: MICa: MIC of the antibiotic; for FICI / MICac: MIC of the antibiotic in the combination: strain PA14; for FICI: antibiotic + D-11 (MICb/MICbc 128/4); for MICac: MIC of the antibiotic in the combination: with D-11 at MICbc 4, unit not given
Procedure, shortened: as §1

P. aeruginosa PAK = assay: microbe, parasite or virus in culture; design: MICa: MIC of the antibiotic / MICac: MIC of the antibiotic in the combination: unit not given beside the values; conditions: for MIC: Pseudomonas aeruginosa, 18 h, read-out: MICa: MIC of the antibiotic; for FICI / MICac: MIC of the antibiotic in the combination: strain PAK; for FICI: antibiotic + D-11 (MICb/MICbc 64/4); for MICac: MIC of the antibiotic in the combination: with D-11 at MICbc 4, unit not given
Procedure, shortened: as §1

P. aeruginosa HM-214 = conditions: strain HM-214; antibiotic + D-11 (MICb/MICbc 128/4)
Procedure, shortened: as §1

P. aeruginosa AUMC-Pa-1 = conditions: strain AUMC-Pa-1; antibiotic + D-11 (MICb/MICbc 128/4)
Procedure, shortened: as §1

P. aeruginosa AUMC-Pa-2 = conditions: strain AUMC-Pa-2; antibiotic + D-11 (MICb/MICbc 64/4)
Procedure, shortened: as §1

[1] = test system: clinical P. aeruginosa isolates; assay: microbe, parasite or virus in culture; conditions: Pseudomonas aeruginosa, 18 h, antibiotic alone
Procedure, shortened: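 Broth microdilution per CLSI in MHB, two-fold drug dilutions mixed with an equal volume of bacteria at about 1 × 10^6 CFU/mL. After 18 h at 37 °C, MIC taken as the lowest concentration with no visible growth; run in triplicate.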

[2] = read-out: Antibiotic sensibility (MIC) of clinical P. aeruginosa isolate AUMC-Pa-1, strain AUMC-Pa-1
[3] = read-out: Antibiotic sensibility (MIC) of clinical P. aeruginosa isolate AUMC-Pa-2, strain AUMC-Pa-2
[4] = read-out: Antibiotic sensibility (MIC) of clinical P. aeruginosa isolate AUMC-Pa-3, strain AUMC-Pa-3
[5] = read-out: Antibiotic sensibility (MIC) of clinical P. aeruginosa isolate AUMC-Pa-4, strain AUMC-Pa-4
[6] = read-out: Antibiotic sensibility (MIC) of clinical P. aeruginosa isolate AUMC-Pa-5, strain AUMC-Pa-5
[7] = read-out: Antibiotic sensibility (MIC) of clinical P. aeruginosa isolate AUMC-Pa-6, strain AUMC-Pa-6
[8] = read-out: Antibiotic sensibility (MIC) of clinical P. aeruginosa isolate HM-214, strain HM-214
[9] = read-out: Antibiotic sensibility (MIC) of clinical P. aeruginosa isolate NR-31040, strain NR-31040
[10] = read-out: Antibiotic sensibility (MIC) of clinical P. aeruginosa isolate NR-31041, strain NR-31041

C[C@H]1COc2c(N3CCN(C)CC3)c(F)cc3c(=O)c(C(=O)O)cn1c23 [Levofloxacin]
MIC (P. aeruginosa AUMC-Pa-3): 0.5 µM
FICI (P. aeruginosa AUMC-Pa-3): 0.281
MICac: MIC of the antibiotic in the combination (P. aeruginosa AUMC-Pa-3): 0.125
MIC (P. aeruginosa AUMC-Pa-4): 0.5 µM
FICI (P. aeruginosa AUMC-Pa-4): 0.531
MICac: MIC of the antibiotic in the combination (P. aeruginosa AUMC-Pa-4): 0.25
MIC (P. aeruginosa AUMC-Pa-5): 0.5 µM
FICI (P. aeruginosa AUMC-Pa-5): 2.063
MICac: MIC of the antibiotic in the combination (P. aeruginosa AUMC-Pa-5): 1
MIC (P. aeruginosa AUMC-Pa-6): 0.25 µM
FICI (P. aeruginosa AUMC-Pa-6): 1.063
MICac: MIC of the antibiotic in the combination (P. aeruginosa AUMC-Pa-6): 0.25/0.25
MIC (P. aeruginosa PAO1): 1 µM
FICI (P. aeruginosa PAO1; antibiotic + 2 μM D-11): 0.125
FICI (P. aeruginosa PAO1; antibiotic + 4 μM D-11): 0.156
MICac: the MIC for the antibiotic in the combination (P. aeruginosa PAO1; with 2 μM D-11): 0.0625 µM
MICac: the MIC for the antibiotic in the combination (P. aeruginosa PAO1; with 4 μM D-11): 0.03125 µM
MIC (P. aeruginosa ATCC27853): 1 µM
FICI (P. aeruginosa ATCC27853): 0.250
MICac: MIC of the antibiotic in the combination (P. aeruginosa ATCC27853): 0.125
MIC (P. aeruginosa NR-31040): 1 µM
FICI (P. aeruginosa NR-31040): 0.281
MICac: MIC of the antibiotic in the combination (P. aeruginosa NR-31040): 0.25
MIC (P. aeruginosa NR-31041): 1 µM
FICI (P. aeruginosa NR-31041): 0.313
MICac: MIC of the antibiotic in the combination (P. aeruginosa NR-31041): 0.25
MIC (P. aeruginosa PA14): 0.5 µM
FICI (P. aeruginosa PA14): 0.531
MICac: MIC of the antibiotic in the combination (P. aeruginosa PA14): 0.25
MIC (P. aeruginosa PAK): 0.5 µM
FICI (P. aeruginosa PAK): 0.563
MICac: MIC of the antibiotic in the combination (P. aeruginosa PAK): 0.25
FICI (P. aeruginosa HM-214): 0.531
FICI (P. aeruginosa AUMC-Pa-1): 0.156
FICI (P. aeruginosa AUMC-Pa-2): 0.563
MIC [1, 2]: 8 µM
MIC [1, 3]: 0.5 µM
MIC [1, 4]: 0.5 µM
MIC [1, 5]: 0.5 µM
MIC [1, 6]: 0.5 µM
MIC [1, 7]: 0.25 µM
MIC [1, 8]: 1 µM
MIC [1, 9]: 1 µM
MIC [1, 10]: 1 µM

CCn1cc(C(=O)O)c(=O)c2ccc(C)nc21 [Nalidixic Acid]
MIC (P. aeruginosa AUMC-Pa-3): > 128 µM
FICI (P. aeruginosa AUMC-Pa-3): 0.063
MICac: MIC of the antibiotic in the combination (P. aeruginosa AUMC-Pa-3): 8
MIC (P. aeruginosa AUMC-Pa-4): > 128 µM
FICI (P. aeruginosa AUMC-Pa-4): 0.531
MICac: MIC of the antibiotic in the combination (P. aeruginosa AUMC-Pa-4): >128/128
MIC (P. aeruginosa AUMC-Pa-5): > 128 µM
FICI (P. aeruginosa AUMC-Pa-5): 1.063
MICac: MIC of the antibiotic in the combination (P. aeruginosa AUMC-Pa-5): >128/>128
MIC (P. aeruginosa AUMC-Pa-6): > 128 µM
FICI (P. aeruginosa AUMC-Pa-6): 0.188
MICac: MIC of the antibiotic in the combination (P. aeruginosa AUMC-Pa-6): 32
MIC (P. aeruginosa PAO1): > 128 µM
FICI (P. aeruginosa PAO1; antibiotic + 2 μM D-11): 0.094
FICI (P. aeruginosa PAO1; antibiotic + 4 μM D-11): 0.141
MICac: the MIC for the antibiotic in the combination (P. aeruginosa PAO1; with 2 μM D-11): 8 µM
MICac: the MIC for the antibiotic in the combination (P. aeruginosa PAO1; with 4 μM D-11): 4 µM
MIC (P. aeruginosa ATCC27853): > 128 µM
FICI (P. aeruginosa ATCC27853): 0.156
MICac: MIC of the antibiotic in the combination (P. aeruginosa ATCC27853): 8
MIC (P. aeruginosa NR-31040): > 128 µM
FICI (P. aeruginosa NR-31040): 0.063
MICac: MIC of the antibiotic in the combination (P. aeruginosa NR-31040): 8
MIC (P. aeruginosa NR-31041): > 128 µM
FICI (P. aeruginosa NR-31041): 0.125
MICac: MIC of the antibiotic in the combination (P. aeruginosa NR-31041): 16
MIC (P. aeruginosa PA14): > 128 µM
FICI (P. aeruginosa PA14): 0.094
MICac: MIC of the antibiotic in the combination (P. aeruginosa PA14): 16
MIC (P. aeruginosa PAK): > 128 µM
FICI (P. aeruginosa PAK): 0.125
MICac: MIC of the antibiotic in the combination (P. aeruginosa PAK): 16
FICI (P. aeruginosa HM-214): 0.531
FICI (P. aeruginosa AUMC-Pa-1): 0.531
FICI (P. aeruginosa AUMC-Pa-2): 0.188
MIC [1, 2]: > 128 µM
MIC [1, 3]: > 128 µM
MIC [1, 4]: > 128 µM
MIC [1, 5]: > 128 µM
MIC [1, 6]: > 128 µM
MIC [1, 7]: > 128 µM
MIC [1, 8]: > 128 µM
MIC [1, 9]: > 128 µM
MIC [1, 10]: > 128 µM
